Source: US5869501A, “Amidinonaphthyl derivative or salt thereof” (Yamanouchi Pharmaceutical Co. Ltd, priority 1994, dated 1999)
Structures can show the parent of a compound that is named as a salt. Where two headings read alike, the source gives them in different places.

Legend:
Assay type in all cases: biochemical
[1] = target: T1, human activated blood coagulation factor X (Homo sapiens, UniProt P00742); assay: Measurement of blood coagulation time by human activated blood coagulation factor X (human plasma); details: read-out: CT2 (dose which extends the blood coagulation time twice), human activated blood coagulation factor X
T1 construct: purchased Cosmo Bio
Experimental: 1) Test on the measurement of blood coagulation time by human activated blood coagulation factor X.
Human activated blood coagulation factor X (manufactured by Cosmo Bio) is dissolved in 0.05M Tris-HCl buffer (pH=7.40) to prepare a 0.05 unit/ml solution. A blood sample collected using 1/10 volume of 3.8% sodium citrate was centrifuged at 3,000 rpm for 10 minutes. Then, 90 μl portion of the thus separated human plasma was mixed with 10 μl of each drug which has been diluted by dissolving in physiological saline and 50 μl of the aforementioned activated blood coagulation factor X solution, and the mixture was incubated at 37° C. for 3 minutes. Then, 100 μl of 20 mM CaCl2 solution was added to measure the blood coagulation time. KC4A manufactured by Amelung was used for the measurement of blood coagulation time. A dose which extends the blood coagulation time twice (to be referred to as CT2 hereinafter) was calculated based on the blood coagulation time when 10 μl of physiological saline was added instead of the drug.

[2] = target: T2, bovine thrombin (Bos taurus, UniProt P00735); assay: Measurement of coagulation time by bovine thrombin (human fibrinogen); details: pH=7.40, read-out: CT2 (dose which extends the blood coagulation time twice), bovine thrombin
T2 construct: clotting of human fibrinogen
Experimental: 2) Test on the measurement of coagulation time by bovine thrombin.
Human fibrinogen (freeze-dried preparation, manufactured by Sigma) is dissolved in 0.05M Tris-HCl buffer (pH=7.40) to prepare a 6 mg/ml solution. Bovine thrombin (500 IU/vial, manufactured by Mochida Pharmaceutical) is dissolved in physiological saline to prepare thrombin solutions of various concentrations. A 100 μl portion of the aforementioned fibrinogen solution was mixed with 100 μl of physiological saline, the mixture was incubated at 37° C. for 3 minutes. Then, 100 μl of the aforementioned thrombin solution was added to measure the coagulation time and to determine concentration of thrombin which causes coagulation after about 20 seconds. Next, 100 μl of each drug which has been diluted with physiological saline was added to 100 μl of the aforementioned fibrinogen solution to measure the coagulation time. KC4A manufactured by Amelung was used for the measurement of the coagulation time. A dose which extends the blood coagulation time twice (to be referred to as CT2 hereinafter) was calculated based on the blood coagulation time when 100 μl of physiological saline was added.

[3] = target: T1, human activated blood coagulation factor X; assay: Measurement of enzyme inhibition by a synthetic substrate method (S-2222); details: 37° C., 15 minutes, absorbance at 405 nm
Experimental: 3) Test on the measurement of enzyme inhibition by a synthetic substrate method.
Human activated blood coagulation factor X (manufactured by Cosmo Bio) was dissolved in 0.02M Tris-HCl buffer (pH=7.40) containing 0.15M sodium chloride to prepare a 6 units/ml solution. A synthetic substrate S-2222 (manufactured by Daiichi Kagaku Yakuhin) was dissolved in purified water to prepare a 0.75 mg/ml solution. A 25 μl portion of each drug which has been prepared by dissolving the drug in physiological saline was mixed with 170 μl of 0.05M Tris-HCl buffer (pH=8.40) and 50 μl of the S-2222 solution. Then, 10 μl of the human activated blood coagulation factor X solution was added and the mixture was incubated at 37° C. for 15 minutes. The reaction was stopped by adding 50 μl of 60% acetic acid and then the absorbance at 405 nm was measured to calculate IC50 value. Model 3550 manufactured by Bio-Rad was used for the measurement. A reaction mixture prepared by adding physiological saline instead of the drug and adding 60% acetic acid prior to the addition of the human activated blood coagulation factor X solution was used as a control. Concentration of the drug when 50% of the reaction was inhibited (to be referred to as IC50 hereinafter) was calculated based on the control.

[4] = human plasma, 37° C., 3 minutes incubation

T1 sequence (P00742 235-488 limits assumed): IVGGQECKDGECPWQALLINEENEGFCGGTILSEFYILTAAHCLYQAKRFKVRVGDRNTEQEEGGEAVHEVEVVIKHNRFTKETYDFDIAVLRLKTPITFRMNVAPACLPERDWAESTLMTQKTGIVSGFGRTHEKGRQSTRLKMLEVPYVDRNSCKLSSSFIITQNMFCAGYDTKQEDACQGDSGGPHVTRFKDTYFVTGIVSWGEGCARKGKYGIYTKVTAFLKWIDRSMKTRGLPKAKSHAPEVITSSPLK
T1 sequence (P00742 41-179 partner limits assumed): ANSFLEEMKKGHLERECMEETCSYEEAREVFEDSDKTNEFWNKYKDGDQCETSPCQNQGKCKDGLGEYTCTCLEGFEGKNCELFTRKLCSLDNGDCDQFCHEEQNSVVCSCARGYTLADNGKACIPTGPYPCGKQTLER

`CNS(=O)(=O)N(Cc1ccc2ccc(C(=N)N)cc2c1)c1ccc(OC2CCN(C(C)=N)CC2)cc1` [Example 79, N-[4-[(1-Acetoimidoyl-4-piperidyl)oxy]phenyl]-N-[(7-amidino-2-naphthyl)methyl]-N'-methylsulfamide dihydrochloride] was tested, and the IC (2-fold clotting time) [1] was 0.05 µM, the IC (2-fold clotting time) [2] was > 100 µM and the IC50 [3] was 0.091 µM.
In the case of `CC(=N)N1CCC(Oc2ccc(N(Cc3ccc4ccc(C(=N)N)cc4c3)S(=O)(=O)c3ccc(C(=O)O)cc3)cc2)CC1` [Example 74, 4-[N-[4-[(1-Acetoimidoyl-4-piperidyl)oxy]phenyl]-N-[(7-amidino-2-naphthyl)methyl]sulfamoyl]benzoic acid dihydrochloride], the IC (2-fold clotting time) [1, 4] is reported as 0.09 µM and the IC (2-fold clotting time) [2] is reported as > 100 µM.
`CC(=N)N1CCC(Oc2ccc(NCc3ccc4ccc(C(=N)N)cc4c3)cc2)CC1` [Example 31, 7-[[4-[(1-Acetoimidoyl-4-piperidyl)oxy]anilino]methyl]-2-naphthamidine trihydrochloride] was tested, and the IC (2-fold clotting time) [1, 4] was 0.09 µM and the IC (2-fold clotting time) [2] was > 100 µM.
In the case of `CC(=N)N1CCC(Oc2ccc(N(Cc3ccc4ccc(C(=N)N)cc4c3)C(=O)c3c(F)cccc3F)cc2)CC1` [Example 47, N-[4-[(1-Acetoimidoyl-4-piperidyl)oxy]phenyl]-N-[(7-amidino-2-naphthyl)methyl]-2,6-difluorobenzamide dihydrochloride], the IC (2-fold clotting time) [1, 4] is reported as 0.13 µM and the IC (2-fold clotting time) [2] is reported as > 100 µM.
In the case of `CCOC(=O)C(=O)N(Cc1ccc2ccc(C(=N)N)cc2c1)c1ccc(OC2CCN(C(C)=N)CC2)cc1` [Example 23, ethyl N-[4-[(1-acetoimidoyl-4-piperidyl)oxy]phenyl]-N-[(7-amidino-2-naphthyl)methyl]oxamate dihydrochloride], the IC (2-fold clotting time) [1, 4] is reported as 0.11 µM and the IC (2-fold clotting time) [2] is reported as > 100 µM.
`CCOC(=O)NS(=O)(=O)N(Cc1ccc2ccc(C(=N)N)cc2c1)c1ccc(OC2CCN(C(C)=N)CC2)cc1` [Example 63, Ethyl N-[N-[4-[(1-acetoimidoyl-4-piperidyl)oxy]phenyl]-N-[7-amidino-2-naphthyl)methyl]sulfamoyl]carbamate dihydrochloride] was tested, and the IC (2-fold clotting time) [1, 4] was 0.04 µM and the IC (2-fold clotting time) [2] was > 100 µM.
With `CCOC(=O)N(CC(=O)O)S(=O)(=O)N(Cc1ccc2ccc(C(=N)N)cc2c1)c1ccc(OC2CCN(C(C)=N)CC2)cc1` [Example 86, N-[N-[4-[(1-Acetoimidoyl-4-piperidyl)oxy]phenyl]-N-[(7-amidino-2-naphthyl)methyl]sulfamoyl]-N-ethoxycarbonylglycine dihydrochloride] the IC (2-fold clotting time) [1, 4] was 0.04 µM and the IC (2-fold clotting time) [2] was > 100 µM.
In the case of `CCS(=O)(=O)N(Cc1ccc2ccc(C(=N)N)cc2c1)c1ccc(OC2CCN(C(C)=N)CC2)cc1` [Example 28, N-[4-[(1-Acetoimidoyl-4-piperidyl)oxy]phenyl]-N-[(7-amidino-2-naphthyl)methyl]ethanesulfonamide dihydrochloride], the IC (2-fold clotting time) [1, 4] is reported as 0.05 µM and the IC (2-fold clotting time) [2] is reported as > 100 µM.
With `COc1ccccc1C(=O)N(Cc1ccc2ccc(C(=N)N)cc2c1)c1ccc(OC2CCN(C(C)=N)CC2)cc1` [Example 33, N-[4-[(1-Acetoimidoyl-4-piperidyl)oxy]phenyl]-N-[(7-amidino-2-naphthyl)methyl]-2-methoxybenzamide dihydrochloride] the IC (2-fold clotting time) [1, 4] was 0.14 µM and the IC (2-fold clotting time) [2] was > 100 µM.
In the case of `CCOC(=O)CNS(=O)(=O)N(Cc1ccc2ccc(C(=N)N)cc2c1)c1ccc(OC2CCN(C(C)=N)CC2)cc1` [Example 88, Ethyl N-[N-[4-[(1-acetoimidoyl-4-piperidyl)oxy]phenyl]-N-[(7-amidino-2-naphthyl)methyl]sulfamoyl]glycinate dihydrochloride], the IC (2-fold clotting time) [1] is reported as 0.04 µM, the IC (2-fold clotting time) [2] is reported as > 100 µM and the IC50 [3] is reported as 0.047 µM.
